Assay [1] relates to Aβ40 in conditioned medium of cells stably expressing Amyloid Precursor Protein (APP). The experiment in a line: In vitro BACE cell-based assay (HEK cell assay), Aβ40 sandwich ELISA. To be noted: Homo sapiens, HEK293. The method, boiled down:
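Aβ40 in conditioned medium was quantified by time-resolved fluorescence sandwich ELISA (pAb40 capture 3 h at 4 °C, biotin-6E10 detection 2 h at 4 °C) after 24 h compound exposure of APP-expressing cells. Doses spanned 10 points from 100 μM or 10 μM top, 0.1% DMSO; IC50 was derived from percent of control.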
On the technique in general: An ELISA detects its analyte on a solid surface through an enzyme-linked reagent.

Assay [2] concerns the target T1, Cathepsin D (Cat D) (Homo sapiens, UniProt P07339).
T1 construct: Recombinant Cat D was expressed in CHO cells; made in house; host or cells: CHO cells
In words: In vitro enzymatic Cathepsin D (Cat D) FRET assay. The conditions noted are these: read-out: CatD IC50. It is filed as biochemical. The method, boiled down: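 FRET read-out: a fluorophore/quencher-labelled peptide substrate is cleaved by 9 nM Cat D (recombinant, CHO-expressed) following a one-hour preincubation with inhibitor dilutions in DMSO. Tris buffer added to neutralize pH ends the reaction before fluorescence measurement.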

Assay [3] has as its target Beta Secretase enzyme (BACE1) (Homo sapiens, UniProt P56817). The experiment in a line: In vitro enzymatic BACE FRET assay. To be noted: read-out: BACE1 FRET assay IC50. It is filed as biochemical. The method, boiled down: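 Readout: dequenched fluorescence (ex 488 nm/[…]) after neutralizing with Tris buffer. Reactions, begun by adding 50 nM quenched peptide substrate spanning the BACE cleavage site, were incubated one hour at pH 4.2 in 0.05 M acetate with 100 uM genapol and 10% final DMSO.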

Where two headings read alike, the source gives them in different places.

T1 sequence (P07339 65-412, species assumed): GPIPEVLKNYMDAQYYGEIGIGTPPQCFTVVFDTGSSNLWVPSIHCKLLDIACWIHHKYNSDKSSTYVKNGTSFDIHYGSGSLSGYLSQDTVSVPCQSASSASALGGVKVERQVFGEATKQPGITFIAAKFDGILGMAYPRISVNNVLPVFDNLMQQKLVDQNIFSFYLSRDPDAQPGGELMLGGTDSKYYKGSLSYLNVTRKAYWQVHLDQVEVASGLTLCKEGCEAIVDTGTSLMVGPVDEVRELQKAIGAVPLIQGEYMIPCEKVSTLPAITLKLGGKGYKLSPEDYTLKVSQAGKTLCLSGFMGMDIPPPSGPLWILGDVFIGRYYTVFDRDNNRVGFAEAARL
Chain of Beta Secretase enzyme (BACE1) (P56817 46-501): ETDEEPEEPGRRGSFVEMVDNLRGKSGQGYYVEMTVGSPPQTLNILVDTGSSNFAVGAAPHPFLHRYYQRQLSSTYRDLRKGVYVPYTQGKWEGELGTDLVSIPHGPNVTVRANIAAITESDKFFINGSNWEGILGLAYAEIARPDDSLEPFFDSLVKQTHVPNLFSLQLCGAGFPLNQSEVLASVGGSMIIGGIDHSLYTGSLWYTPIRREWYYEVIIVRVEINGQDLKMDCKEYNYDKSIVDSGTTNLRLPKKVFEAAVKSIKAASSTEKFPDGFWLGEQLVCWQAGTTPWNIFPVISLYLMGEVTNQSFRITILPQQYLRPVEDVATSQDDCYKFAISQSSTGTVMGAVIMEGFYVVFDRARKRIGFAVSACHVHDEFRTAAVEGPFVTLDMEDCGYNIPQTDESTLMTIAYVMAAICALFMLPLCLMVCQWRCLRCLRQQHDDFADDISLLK

`COc1cnc2c(Nc3ccc(F)c([C@]4(C)CS(=O)(=O)[C@@](C)(F)C(N)=N4)c3)nccc2c1` [Example 74, (3R,6R)-5-Amino-6-fluoro-3-(2-fluorophenyl-5-((3-methoxy-1,7-naphthyridin-8-yl)amino)phenyl)-3,6-dimethyl-3,6-dihydro-2H-1,4-thiazine 1,1-dioxide]: the IC50 (as a rule, the concentration needed to halve the response being measured) was 0.102 µM in assay [1] (Aβ40, 24 h incubation); over 400 µM in assay [2]; 0.0137 µM in assay [3].

Take `COc1cnc2c(Nc3ccc(F)c([C@]4(C)CS(=O)(=O)C(C)(C)C(N)=N4)c3)cccc2n1` [Example 75, (R)-5-Amino-3-(2-fluoro-5-((2-methoxyquinoxalin-5-yl)amino)phenyl)-3,6,6-trimethyl-3,6-dihydro-2H-1,4-thiazine 1,1-dioxide]: the IC50 in assay [1] (Aβ40, 24 h incubation) turned out to be 0.212 µM; in assay [2], 47.6 µM; in assay [3], 0.0114 µM.

In the case of `CC1(C)C(N)=N[C@](C)(c2cc(Nc3ncc(F)c4cc(C#N)cnc34)ccc2F)CS1(=O)=O` [Example 76, (R)-8-((3-(5-Amino-3,6,6-trimethyl-1,1-dioxido-3,6-dihydro-2H-1,4-thiazin-3-yl)-4-fluorophenyl)amino)-5-fluoro-1,7-naphthyridine-3-carbonitrile], the IC50 in assay [1] (Aβ40, 24 h incubation) was 0.0039 µM; in assay [2] it was over 44 µM; in assay [3], 0.002 µM.

On to `CC1(C)C(N)=N[C@@](C)(c2cc(Nc3noc4cc(Cl)cnc34)ccc2F)CS1(=O)=O` [Example 78, (S)-5-Amino-3-(5-((6-chloroisoxazolo[4,5-b]pyridin-3-yl)amino)-2-fluorophenyl)-3,6,6-trimethyl-3,6-dihydro-2H-1,4-thiazine 1,1-dioxide], for which the IC50 in assay [1] (Aβ40, 24 h incubation) was determined as 0.0944 µM; in assay [2], 45.6 µM; in assay [3], 0.0138 µM.

`CC1(C)C(N)=N[C@](C)(c2cc(Sc3cccc4ccccc34)ccc2F)CS1(=O)=O` [Example 79, (R)-5-Amino-3-(2-fluoro-5-(naphthalen-1-ylthio)phenyl)-3,6,6-trimethyl-3,6-dihydro-2H-1,4-thiazine 1,1-dioxide]: the concentration for half-maximal inhibition (IC50) in assay [1] (Aβ40, 24 h incubation) was determined as 4.94 µM; in assay [2], 33.7 µM; in assay [3] it was 2.5 µM.

Consider `COc1cnc(C(=O)Nc2ccc(F)c([C@]3(C)CS(=O)(=O)C(C)C(N)=N3)c2)cn1` (stereo partly drawn) [Example 82, N-(3-((3R)-5-Amino-3,6-dimethyl-1,1-dioxido-3,6-dihydro-2H-1,4-thiazin-3-yl)-4-fluorophenyl)-5-methoxypyrazine-2-carboxamide], for which the IC50 in assay [1] (Aβ40, 24 h incubation) was 0.0125 µM; in assay [2] it was over 400 µM; in assay [3] it was 0.0075 µM.

In the case of `COc1cnc2c(Nc3ccc(F)c([C@]4(C)CS(=O)(=O)C5(CCCC5)C(N)=N4)c3)nccc2c1` [Example 84, (R)-10-Amino-8-(2-fluoro-5-((3-methoxy-1,7-naphthyridin-8-yl)amino)phenyl)-8-methyl-6-thia-9-azaspiro[4.5]dec-9-ene 6,6-dioxide], the IC50 amounted to 0.0575 µM in assay [1] (Aβ40, 24 h incubation); 283 µM in assay [2]; 0.0234 µM in assay [3].

As to `COc1cnc2c(Nc3ccc(F)c([C@]4(C)CS(=O)(=O)C5(CC5)C(N)=N4)c3)nccc2c1` [Example 86, (R)-8-Amino-6-(2-fluoro-5-((3-methoxy-1,7-naphthyridin-8-yl)amino)phenyl)-6-methyl-4-thia-7-azaspiro[2.5]oct-7-ene 4,4-dioxide], the IC50 in assay [1] (Aβ40, 24 h incubation) was found to be 0.0082 µM; in assay [2], 160 µM; in assay [3], 0.0136 µM.

As to `CC1(C)C(N)=N[C@](C)(c2cc(Oc3ccc(C#N)cc3)ccc2F)CS1(=O)=O` [Example 96, (R)-4-(3-(5-amino-3,6,6-trimethyl-1,1-dioxido-3,6-dihydro-2H-1,4-thiazin-3-yl)-4-fluorophenoxy)benzonitrile], the IC50 in assay [1] (Aβ40, 24 h incubation) was 6.02 µM; in assay [2] it was 58.7 µM; in assay [3] it was 1.8 µM.

Consider `CC1(C)C(N)=N[C@](C)(c2cc(Oc3cc(F)cc(C(F)(F)F)c3)ccc2F)CS1(=O)=O` [Example 98, (R)-5-amino-3-(2-fluoro-5-(3-fluoro-5-(trifluoromethyl)phenoxy)phenyl)-3,6,6-trimethyl-3,6-dihydro-2H-1,4-thiazine 1,1-dioxide], for which the IC50 in assay [1] (Aβ40, 24 h incubation) amounted to 5.04 µM; in assay [2], 56.3 µM; in assay [3], 0.135 µM.

On to `CCc1cccc(Oc2ccc(F)c([C@]3(C)CS(=O)(=O)C(C)(C)C(N)=N3)c2)c1` [Example 99, (R)-5-amino-3-(5-(3-ethylphenoxy)-2-fluorophenyl)-3,6,6-trimethyl-3,6-dihydro-2H-1,4-thiazine 1,1-dioxide], for which the IC50 in assay [1] (Aβ40, 24 h incubation) came to 6.68 µM; in assay [2], 86.8 µM; in assay [3] it was 1.43 µM.

In the case of `CCc1cc(Oc2ccc(F)c([C@]3(C)CS(=O)(=O)C(C)(C)C(N)=N3)c2)ccc1Cl` [Example 100, (R)-5-amino-3-(5-(4-chloro-3-ethylphenoxy)-2-fluorophenyl)-3,6,6-trimethyl-3,6-dihydro-2H-1,4-thiazine 1,1-dioxide], the IC50 in assay [1] (Aβ40, 24 h incubation) is over 10 µM; in assay [2], 17.7 µM; in assay [3] it was 1.55 µM.

On to `COc1ccc(C)cc1Oc1ccc(F)c([C@]2(C)CS(=O)(=O)C(C)(C)C(N)=N2)c1` [Example 101, (R)-5-amino-3-(2-fluoro-5-(2-methoxy-5-methylphenoxy)phenyl)-3,6,6-trimethyl-3,6-dihydro-2H-1,4-thiazine 1,1-dioxide], for which the IC50 in assay [1] (Aβ40, 24 h incubation) was over 10 µM; in assay [2] it was 194 µM; in assay [3] it was 15.2 µM.

Regarding `CC1(C)C(N)=N[C@](C)(c2cc(Oc3ccc4ccccc4c3)ccc2F)CS1(=O)=O` [Example 102, (R)-5-amino-3-(2-fluoro-5-(naphthalen-2-yloxy)phenyl)-3,6,6-trimethyl-3,6-dihydro-2H-1,4-thiazine 1,1-dioxide], the IC50 in assay [1] (Aβ40, 24 h incubation) is 8.04 µM; in assay [2], 51.2 µM; in assay [3] it was 2.35 µM.

With `CC1(C)C(N)=N[C@](C)(c2cc(Oc3ccccn3)ccc2F)CS1(=O)=O` [Example 103, (R)-5-amino-3-(2-fluoro-5-(pyridin-2-yloxy)phenyl)-3,6,6-trimethyl-3,6-dihydro-2H-1,4-thiazine 1,1-dioxide], the IC50 in assay [1] (Aβ40, 24 h incubation) amounted to 0.213 µM; in assay [2] it was 246 µM; in assay [3] it was 0.119 µM.

Take `CC1(C)C(N)=N[C@](C)(c2cc(Nc3ncnc4cc(OCC5CC5)cnc34)ccc2F)CS1(=O)=O` [Example 104, (R)-5-amino-3-(5-((7-(cyclopropylmethoxy)pyrido[3,2-d]pyrimidin-4-yl)amino)-2-fluorophenyl)-3,6,6-trimethyl-3,6-dihydro-2H-1,4-thiazine 1,1-dioxide]: the IC50 in assay [1] (average IC50, cell assay) is 0.0052 µM; in assay [2], 358 µM; in assay [3] (average IC50, enzyme assay), 0.00154 µM.

Take `Cc1nc2c(Nc3ccc(F)c([C@]4(C)CS(=O)(=O)C(C)(C)C(N)=N4)c3)cccc2s1` [Example 105, (R)-5-amino-3-(2-fluoro-5-((2-methylbenzo[d]thiazol-4-yl)amino)phenyl)-3,6,6-trimethyl-3,6-dihydro-2H-1,4-thiazine 1,1-dioxide]: the IC50 in assay [1] (average IC50, cell assay) worked out at 0.742 µM; in assay [2], 145 µM; in assay [3] (average IC50, enzyme assay), 0.184 µM.

Turning to `CC1(C)C(N)=N[C@](C)(c2cc(NCc3nn(CC(F)(F)F)cc3Cl)ccc2F)CS1(=O)=O` [Example 108, (R)-5-amino-3-(5-(((4-chloro-1-(2,2,2-trifluoroethyl)-1H-pyrazol-3-yl)methyl)amino)-2-fluorophenyl)-3,6,6-trimethyl-3,6-dihydro-2H-1,4-thiazine 1,1-dioxide], the IC50 was found to be 0.161 µM in assay [1] (average IC50, cell assay); 49.8 µM in assay [2]; 0.0452 µM in assay [3] (average IC50, enzyme assay).

Take `CC1(C)C(N)=N[C@](C)(c2cc(NCc3c(Cl)cnn3CC(F)(F)F)ccc2F)CS1(=O)=O` [Example 109, (R)-5-amino-3-(5-(((4-chloro-1-(2,2,2-trifluoroethyl)-1H-pyrazol-5-yl)methyl)amino)-2-fluorophenyl)-3,6,6-trimethyl-3,6-dihydro-2H-1,4-thiazine 1,1-dioxide]: the IC50 in assay [1] (average IC50, cell assay) amounted to 0.36 µM; in assay [2], 12.2 µM; in assay [3] (average IC50, enzyme assay), 0.208 µM.

With `Cc1cnc(C(=O)Nc2ccc(F)c([C@]3(C)CS(=O)(=O)C(C)(C)C(N)=N3)c2)cn1` [Example 110, (R)—N-(3-(5-amino-3,6,6-trimethyl-1,1-dioxido-3,6-dihydro-2H-1,4-thiazin-3-yl)-4-fluorophenyl)-5-methylpyrazine-2-carboxamide], the IC50 worked out at 0.0144 µM in assay [1], 1840 µM in assay [2] and 0.0202 µM in assay [3].

Regarding `Cc1cnc(C(=O)Nc2ccc(F)c([C@]3(C)CS(=O)(=O)C(C)(C)C(N)=N3)c2)c(C)n1` [Example 111, ®-N-(3-(5-amino-3,6,6-trimethyl-1,1-dioxido-3,6-dihydro-2H-1,4-thiazin-3-yl)-4-fluorophenyl)-3,5-dimethylpyrazine-2-carboxamide], the figures for the IC50 in assay [1], in assay [2] and in assay [3] were 0.0244 µM, over 400 µM and 0.0182 µM, respectively.

For `C[C@@]1(c2cc(Nc3nccc4cc(Cl)cnc34)ccc2F)CS(=O)(=O)C2(CCC2)C(N)=N1` [Example 116, (R)-9-amino-7-(5-((3-chloro-1,7-naphthyridin-8-yl)amino)-2-fluorophenyl)-7-methyl-5-thia-8-azaspiro[3.5]non-8-ene 5,5-dioxide], the IC50 in assay [1] (average IC50, cell assay) came out at 0.0263 µM; in assay [2] it was 38.8 µM; in assay [3] (average IC50, enzyme assay), 0.00115 µM.

Values taken from patent publication US20140107109A1, “AMINO-DIHYDROTHIAZINE AND AMINO-DIOXIDO DIHYDROTHIAZINE COMPOUNDS AS BETA-SECRETASE ANTAGONISTS AND METHODS OF USE” (Amgen Inc., priority 2012, published 2014).
